Test results taken from patent US11738007B2, “Treatment of glaucoma using endothelin receptor antagonists” (Perfuse Therapeutics, Inc., priority 2019, dated 2023).
“And” between values parts separate entries of the source, which are not always exact repeats. Equal values may be shown once. Read-outs that look alike come from different tables or passages of the source.

How the values were obtained:
[1] = Pharmacokinetics after topical administration in the rabbit; assay type: in vivo, Dutch-belted rabbits; details: single topical eye drop 100 μg; 10 minutes, 2 and 7 hours
Description: To determine the pharmacokinetic properties of Edonentan following topical administration in the rabbit, rabbits (Dutch-belted rabbits) received an eye drop in both eyes (100 μg of Edonentan, 35 μL dose volume/eye). After the administrations, the animals (N=2) were euthanized at different time points (e.g. 10 minutes (immediately after pot-dose), 2 and 7 hours) and tissues were collected for analysis. List of tissues collected include plasma, retina, vitreous humor and bulbar conjunctiva.

Stability in solid state = assay type: physicochemical; details: 2 h @ l25° C.
Source text: (§1) In the above table, the physicochemical data, e.g., solubility, were obtained following standard protocols known in the field (see, e.g., Reis et al., Mini Rev Med Chem., 2010, 10(11):1071-6; Avdeef et al., Expert Opin Drug Metab Toxicol., 2005, 1(2):325-42; Bharate et al., Comb Chem High Throughput Screen., 2016, 19(6):461-9; and Jain et al., J Pharm Biomed Anal., 2013, 86:11-35); and the biochemical data, i.e., potency for ETA/ETB, were obtained following the protocols known in the field (see, e.g., Kirkby et al., Br J Pharmacol., 2008, 153(6):1105-19; and Maguire et al., Br J Pharmacol., 2014, 171(24):5555-72).

Permeability (PAMPA) = assay type: in vitro ADME; details: rating in words
Source text: as §1

Solubility = assay type: physicochemical
Source text: as §1

ET-1 induced vasospasm = assay: Rabbit ET-1 induced vasospasm model, retinal blood flow; assay type: in vivo
Description: Adult, male Dutch-belted rabbits were given a 20 μl intravitreal injection (IVT) of 0.5 μg of ET-1 followed by a 20 μl intravitreal injection of 10-100 μg Edonentan given 30 min after the ET-1 administration. IOP, optical coherence tomography-angiography (OCT-A), and fluorescein angiograms (FA) were performed at pre-specified time points (30, 45, 60, and 75 min) following ET-1 and Edonentan administration to assess retinal blood flow changes induced by ET-1+/−Edonentan. […] To evaluate the effect of retinal blood flow following intravitreally administered endothelin-1 (ET-1) followed by the antagonist Edonentan in the rabbit, rabbits (Oryctolagus cuniculus) were given a 20 μL intravitreal injection of ET-1 in the left eye followed by a 20 μL intravitreal injection of Edonentan at 2 (or 3) different doses (e.g. 0.1 μg, 0.5 μg, 2.5 μg). The pulse ox, tonometry, optical coherence tomography angiography (OCTA), fluorescein angiography (FA) and retinal leakage scoring were performed for evaluation.

ETA receptor = molecular target: T1, ETA receptor (Homo sapiens, UniProt P25101); assay: Functional potency for ETA receptor; assay type: biochemical
T1 sequence (P25101 21-427): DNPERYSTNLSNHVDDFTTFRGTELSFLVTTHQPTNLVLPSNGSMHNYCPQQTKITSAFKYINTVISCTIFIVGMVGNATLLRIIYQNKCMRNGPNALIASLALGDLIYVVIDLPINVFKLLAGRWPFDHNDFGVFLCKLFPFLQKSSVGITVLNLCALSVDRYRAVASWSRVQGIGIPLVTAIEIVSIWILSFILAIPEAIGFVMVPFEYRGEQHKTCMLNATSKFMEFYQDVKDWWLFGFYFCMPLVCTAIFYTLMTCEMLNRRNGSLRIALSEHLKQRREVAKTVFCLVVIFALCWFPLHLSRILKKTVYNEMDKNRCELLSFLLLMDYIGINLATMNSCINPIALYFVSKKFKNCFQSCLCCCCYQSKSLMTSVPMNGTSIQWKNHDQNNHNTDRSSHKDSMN
Source text: as §1

laser-induced glaucoma = assay: Laser-induced non-human primate glaucoma model, optic nerve head blood flow (LSFG); assay type: in vivo, rhesus macaque, Macaca mulatta; details: IVT 50 μL of 0.02, 0.2 or 2.0 mg/mL, glaucomatous eye, over 6 hours
Description: Non-human primates (rhesus macaque, Macaca mulatta) were obtained for this study. One eye of each animal underwent induction of elevation of intraocular pressure (IOP) by repeated laser photocoagulation of the trabecular meshwork. Imaging sessions were repeated to monitor the optic nerve head (ONH) and retinal structural changes. A study was performed to compare an experimental glaucoma eye and a contralateral healthy eye (control) of three non-human primates in global average mean blur rate (MBR) and MBR change from baseline over time as an index of ONH blood flow in a laser-induced glaucoma model. More specifically, a vehicle control, 0.02 mg/mL of Edonentan, 0.2 mg/mL of Edonentan, or 2.0 mg/mL of Edonentan was intravitreally administered (50 μL) to a glaucomatous eye of each of three non-human primates (rhesus macaque, Macaca mulatta). These graphs show the ONH blood flow in the three non-human primates after IVT administration of a vehicle alone (FIG. 7A, FIG. 7E, and FIG. 7I), 0.02 mg/mL of Edonentan (FIG. 7B, FIG. 7F, and FIG. 7J), 0.2 mg/mL of Edonentan (FIG. 7C, FIG. 7G, and FIG. 7K) or 2.0 mg/mL of Edonentan (FIG. 7D, FIG. 7H, and FIG. 7L).

[2] = tested on: oxygen-induced ischemic retinopathy; assay: Mouse oxygen-induced ischemic retinopathy (OIR) model; assay type: in vivo, mice; details: IVT 1 μL of 2 μg/μL, single dose; 24, 48, 96 hours
Description: A relevant mice model was used to obtain the retinal hypoxia area in mice with oxygen-induced ischemic retinopathy (OIR) at different time points, as shown in FIG. 4. […] Briefly, at P17, mice with OIR (n=60) were given an injection of ET-1 antagonist (1 μL of 2 μg/μL Edonentan formulation, single dose) in one eye and PBS in the fellow eye. At 24, 48, and 96 hours after injection, mice (n=10 for each time point) were euthanized and the retinas were dissected and stained with GSA lectin and hypoxyprobe. The area of NV, area of retinal hypoxia, and the area of retinal nonperfusion were determined for each retina.

Cc1onc(NS(=O)(=O)c2ccccc2-c2ccc(-c3ncco3)cc2CN(C)C(=O)CC(C)(C)C)c1C [Edonentan, N-[[2′-[[(4,5-dimethyl-3-isoxazolyl)amino]sulfonyl]-4-(2-oxazolyl)[1,1′-biphenyl]-2-yl]methyl]-N,3,3-trimethylbutanamide]
Detection in plasma, retina, vitreous humor and bulbar conjunctiva [1]: detected in all tissues examined at all timepoints
Stability in Solid State (rating) (Stability in solid state): Stable
Permeability (rating) (Permeability (PAMPA)): Mid-High
solubility (Solubility; aqueous buffer, pH 7, amorphous form, read-out: Solubility at pH 7): 326 µg/mL and 607 µM
solubility (Solubility; ethyl acetate, organic solvent or mixture, read-out: Solubility in Ethyl Acetate): > 8900 µg/mL and > 16800 µM
Solubility in Ethyl Acetate (rating) (Solubility; ethyl acetate, rating in words): Good
solubility (Solubility; pH 2, simulated gastric fluid, read-out: Solubility at pH 2): < 0.54 µg/mL and < 1 µM
Fluorescein dye velocity, dose dependence (ET-1 induced vasospasm; 0.1 μg ET-1 and 0.1, 0.5, 2.5 or 10 μg Edonentan IVT, FIG. 8A/8B): dose-response
Effect of ET-1 (retinal vasoconstriction) after antagonist, fluorescein angiography (ET-1 induced vasospasm; 0.5 μg ET-1 IVT, 10 μg Edonentan IVT 30 min after ET-1): reversed
Time to reversal of ET-1 effect (ET-1 induced vasospasm; 0.5 μg ET-1 IVT, 10 μg Edonentan IVT, time after ET-1 (60 min after Edonentan)): ≤ 90 min
Fluorescein dye velocity as an index of retinal blood flow (ET-1 induced vasospasm; 0.5 μg ET-1 and 10 μg antagonist IVT, healthy rabbits, FIG. 3): improved to control levels
IC50 (ETA receptor; functional potency): 1.54 nM
Functional Potency for ETA and ETB Receptors (rating) (ETA receptor; rating in words): High potency
Optic nerve head (ONH) blood flow, mean blur rate (MBR) (laser-induced glaucoma): improvement of ONH blood flow in a dose-dependent manner
Retinal hypoxia area [2]: improvement
